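Following 48 hours of exposure in 96-well plates, responses at five concentrations were used to interpolate endpoints linearly. The concentration for 50% growth inhibition is given as GI50.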 Active and inactive are the calls of the source. Cut-off read from the data, not from the text of the source: active = GI50 up to about 1.1 µM and inactive = higher.
Legend:
Test in all cases: NCI tumour cell line growth inhibition, 48 h
RPMI-8226 = tested on: RPMI-8226
CAKI-1 = tested on: CAKI-1
A549 = tested on: A549
SK-MEL-5 = tested on: SK-MEL-5
SK-MEL-28 = tested on: SK-MEL-28
M14 = tested on: M14
HCT-15 = tested on: HCT-15
TK-10 = tested on: TK-10
MDA-MB-231 = tested on: MDA-MB-231
UO-31 = tested on: UO-31
OVCAR-3 = tested on: OVCAR-3
NCI-H226 = tested on: NCI-H226
MDA-MB-435 = tested on: MDA-MB-435
OVCAR-8 = tested on: OVCAR-8
SF-295 = tested on: SF-295
MOLT-4 = tested on: MOLT-4
NCI-H23 = tested on: NCI-H23
EKVX = tested on: EKVX
A498 = tested on: A498
Hs-578T = tested on: Hs-578T

CN(C)CCn1c(=O)c2ccc(NCCCN(C)CCCNc3ccc4c(=O)n(CCN(C)C)c(=O)n5c6ccccc6c(=O)c3c45)c3c(=O)c4ccccc4n(c1=O)c23
GI50 (RPMI-8226): < 0.01 µM (active) | GI50 (CAKI-1): 0.0172 µM (active) | GI50 (A549): < 0.01 µM (active) | GI50 (SK-MEL-5): < 0.0106 µM (active) | GI50 (SK-MEL-28): 0.165 µM (active) | GI50 (M14): 0.167 µM (active) | GI50 (HCT-15): < 0.01 µM | GI50 (TK-10): 0.0593 µM (active) | GI50 (MDA-MB-231): < 0.0405 µM (active) | GI50 (UO-31): < 0.0285 µM (active) | GI50 (OVCAR-3): 0.0778 µM (active) | GI50 (NCI-H226): < 0.01 µM (active) | GI50 (MDA-MB-435): < 0.0151 µM (active) | GI50 (OVCAR-8): < 0.01 µM (active) | GI50 (SF-295): < 0.01 µM (active) | GI50 (MOLT-4): < 0.01 µM (active) | GI50 (NCI-H23): < 0.01 µM (active) | GI50 (EKVX): 0.051 µM (active) | GI50 (A498): 0.0571 µM (active) | GI50 (Hs-578T): 0.131 µM (active)

CCOC(=O)Cc1csc(NC(NC(=O)OCC)(C(=O)OCC)C(F)(F)F)n1 (stereo not given)
GI50 (RPMI-8226): > 100 µM (inactive) | GI50 (CAKI-1): > 100 µM (inactive) | GI50 (A549): > 100 µM (inactive) | GI50 (SK-MEL-5): > 100 µM (inactive) | GI50 (SK-MEL-28): > 100 µM (inactive) | GI50 (M14): > 100 µM (inactive) | GI50 (HCT-15): > 100 µM | GI50 (TK-10): > 100 µM (inactive) | GI50 (MDA-MB-231): > 100 µM (inactive) | GI50 (UO-31): > 100 µM (inactive) | GI50 (OVCAR-3): > 100 µM (inactive) | GI50 (NCI-H226): > 100 µM (inactive) | GI50 (MDA-MB-435): > 100 µM (inactive) | GI50 (OVCAR-8): > 100 µM (inactive) | GI50 (SF-295): > 100 µM (inactive) | GI50 (MOLT-4): > 100 µM (inactive) | GI50 (NCI-H23): > 100 µM (inactive) | GI50 (EKVX): > 100 µM (inactive) | GI50 (A498): > 100 µM (inactive) | GI50 (Hs-578T): > 100 µM (inactive)

CC12NC(=C(C#N)C#N)C(C#N)=C3NC(N)=C(C#N)C(=C31)Oc1ccccc12 (stereo not given)
GI50 (RPMI-8226): > 32.7 µM (inactive) | GI50 (CAKI-1): > 29.4 µM (inactive) | GI50 (A549): 17 µM (inactive) | GI50 (SK-MEL-5): 5.05 µM (inactive) | GI50 (SK-MEL-28): > 66.7 µM (inactive) | GI50 (M14): > 44.4 µM (inactive) | GI50 (HCT-15): 28.8 µM | GI50 (TK-10): > 31 µM (inactive) | GI50 (MDA-MB-231): > 30.1 µM (inactive) | GI50 (UO-31): > 100 µM (inactive) | GI50 (OVCAR-3): 4.2 µM (inactive) | GI50 (NCI-H226): 43.6 µM (inactive) | GI50 (MDA-MB-435): > 30.1 µM (inactive) | GI50 (OVCAR-8): 10.9 µM (inactive) | GI50 (SF-295): 20 µM (inactive) | GI50 (MOLT-4): 15.2 µM (inactive) | GI50 (NCI-H23): 6.85 µM (inactive) | GI50 (EKVX): > 66.5 µM (inactive) | GI50 (A498): > 30.9 µM (inactive) | GI50 (Hs-578T): 6.46 µM (inactive)

Cc1c2c(n3c(nc4ccccc43)c1C#N)SCC2
GI50 (RPMI-8226): > 10 µM (inactive) | GI50 (CAKI-1): > 10 µM (inactive) | GI50 (A549): > 10 µM (inactive) | GI50 (SK-MEL-5): > 10 µM (inactive) | GI50 (SK-MEL-28): > 10 µM (inactive) | GI50 (M14): > 10 µM (inactive) | GI50 (HCT-15): > 10 µM | GI50 (TK-10): > 10 µM (inactive) | GI50 (MDA-MB-231): > 10 µM (inactive) | GI50 (UO-31): > 10 µM (inactive) | GI50 (OVCAR-3): > 10 µM (inactive) | GI50 (NCI-H226): > 10 µM (inactive) | GI50 (MDA-MB-435): > 10 µM (inactive) | GI50 (OVCAR-8): > 10 µM (inactive) | GI50 (SF-295): > 10 µM (inactive) | GI50 (MOLT-4): > 10 µM (inactive) | GI50 (NCI-H23): > 10 µM (inactive) | GI50 (EKVX): > 10 µM (inactive) | GI50 (A498): 3.36 µM (inactive) | GI50 (Hs-578T): > 10 µM (inactive)

COc1cc2c(cc1OC)C/C(=N\O)c1cc(OC)c(OC)cc1/C=C\2
GI50 (RPMI-8226): 3.82 µM (inactive) | GI50 (CAKI-1): 3.61 µM (inactive) | GI50 (A549): 8.38 µM (inactive) | GI50 (SK-MEL-5): 1.95 µM (inactive) | GI50 (SK-MEL-28): 4.6 µM (inactive) | GI50 (M14): 3.47 µM (inactive) | GI50 (HCT-15): 5.31 µM | GI50 (TK-10): 18.8 µM (inactive) | GI50 (MDA-MB-231): 5.87 µM (inactive) | GI50 (UO-31): 15.9 µM (inactive) | GI50 (OVCAR-3): 3.67 µM (inactive) | GI50 (NCI-H226): 5.56 µM (inactive) | GI50 (MDA-MB-435): 0.822 µM (active) | GI50 (OVCAR-8): 10.4 µM (inactive) | GI50 (SF-295): 3.74 µM (inactive) | GI50 (MOLT-4): 6.41 µM (inactive) | GI50 (NCI-H23): 14.2 µM (inactive) | GI50 (EKVX): 10.7 µM (inactive) | GI50 (A498): 21.2 µM (inactive) | GI50 (Hs-578T): 2.12 µM (inactive)
